Reference: patent US9029367B2, “BACE inhibitors” (Eli Lilly and Company, priority 2013, dated 2015)
Structures can show the parent of a compound that is named as a salt. Where two headings read alike, the source gives them in different places.

Assays:
[1] = test system: Abeta 1-x peptide levels in brain of young female PDAPP mice; assay: In vivo Inhibition of Beta-Secretase (brain Abeta 1-x in PDAPP mice); set-up: species or system mouse; settings: three hours after dosing, compared to vehicle-treated mice
Source text: Several animal models, including mouse, guinea pig, dog, and monkey, may be used to screen for inhibition of beta-secretase activity in vivo following compound treatment Animals used in this invention can be wild type, transgenic, or gene knockout animals. […] One to twenty-four hours following the administration of compound, animals are sacrificed, and brains are removed for analysis of Abeta 1-x. “Abeta 1-x” as used herein refers to the sum of Abeta species that begin with residue 1 and end with a C-terminus greater than residue 28. This detects the majority of Abeta species and is often called “total Abeta”. Total Abeta peptides (Abeta 1-x) levels are measured by a sandwich ELISA, using monoclonal 266 as a capture antibody and biotinylated 3D6 as reporting antibody. (See May, et al., Journal of Neuroscience, 31, 16507-16516 (2011)).
For acute studies, compound or appropriate vehicle is administered and animals are sacrificed at about 3 hours after dosing. Brain tissue, is obtained from selected animals and analyzed for the presence of Abeta 1-x. After chronic dosing brain tissues of older APP transgenic animals may also be analyzed for the amount of beta-amyloid plaques following compound treatment.

[2] = test system: Abeta released by primary cortical neurons from PDAPP transgenic embryonic mice; assay: PDAPP Primary Neuronal Assay (Abeta 1-40 and 1-42 sandwich ELISAs); format: cell-based; settings: Mus musculus, Primary cortical neuron, 24 h incubation
Procedure: For in vitro enzymatic and cellular assays, test compounds are prepared in DMSO to make up a 10 mM stock solution. […] A confirmatory whole cell assay is also run in primary neuronal cultures generated from PDAPP transgenic embryonic mice (May, et al., Journal of Neuroscience, 31, 16507-16516 (2011)). Primary cortical neurons are prepared from Embryonic Day 16 PDAPP embryos and cultured in 96 well plates (15×10^4 cells/well in DMEM/F12 (1:1) plus 10% FBS). After 2 days in vitro, culture media is replaced with serum free DMEM/F12 (1:1) containing B27 supplement and 2 μM (final) of Ara-C (Sigma, C1768). At day 5 in vitro, neurons are incubated at 37° C. for 24 h in the presence/absence of inhibitors (diluted in DMSO) at the desired concentration. […] Natl. Acad. Sci. USA 94, 1550-1555 (1997)). The concentration of Abeta released in the conditioned media following the compound treatment corresponds to the activity of BACE1 under such conditions.

human BACE1 (1-460):Fc = human BACE1 (1-460):Fc (Homo sapiens (Human), UniProt P56817); assay: BACE1 FRET Assay; format: biochemical; settings: purified recombinant huBACE1:Fc, FRET substrate, pH 4.6; Mean ± SEM
Procedure: For in vitro enzymatic and cellular assays, test compounds are prepared in DMSO to make up a 10 mM stock solution. The stock solution is serially diluted in DMSO to obtain a ten-point dilution curve with final compound concentrations ranging from 10 μM to 0.05 nM in a 96-well round-bottom plate before conducting the in vitro enzymatic and whole cell assays.
Human BACE1 (accession number: AF190725) is cloned from total brain cDNA by RT-PCR. The nucleotide sequences corresponding to amino acid sequences #1 to 460 are inserted into the cDNA encoding human IgG1 (Fc) polypeptide (Vassar et al., Science, 286, 735-742 (1999)). This fusion protein of BACE1 (1-460) and human Fc, named huBACE1:Fc, is constructed into the pJB02 vector. Human BACE1 (1-460):Fc (huBACE1:Fc) is transiently expressed in HEK293 cells. 250 μg cDNA of each construct is mixed with Fugene 6 and added to 1 liter HEK293 cells. Four days after the transfection, conditioned media are harvested for purification. huBACE1:Fc is purified by Protein A chromatography. The enzyme is stored at −80° C. in small aliquots. (See Yang, et. al., J. Neurochemistry, 91(6) 1249-59 (2004)
Serial dilutions of test compounds are prepared as described above. Compounds are further diluted 20× in KH2PO4 buffer. Ten μL of each dilution is added to each well on row A to H of a corresponding low protein binding black plate containing the reaction mixture (25 μL of 50 mM KH2PO4, pH 4.6, 1 mM TRITON® X-100, 1 mg/mL Bovine Serum Albumin, and 15 μM of FRET substrate) (See Yang, et. al., J. Neurochemistry, 91(6) 1249-59 (2004)). The content is mixed well on a plate shaker for 10 minutes. Fifteen μL of two hundred pM human BACE1 (1-460):Fc (See Vasser, et al., Science, 286, 735-741 (1999)) in the KH2PO4 buffer is added to the plate containing substrate and test compounds to initiate the reaction. The RFU of the mixture at time 0 is recorded at excitation wavelength 355 nm and emission wavelength 460 nm, after brief mixing on a plate shaker. The reaction plate is covered with aluminum foil and kept in a dark humidified oven at room temperature for 16 to 24 h. The RFU at the end of incubation is recorded with the same excitation and emission settings used at time 0. The difference of the RFU at time 0 and the end of incubation is representative of the activity of BACE1 under the compound treatment. RFU differences are plotted versus inhibitor concentration and a curve is fitted with a four-parameter logistic equation to obtain the IC50 values. (May, et al., Journal of Neuroscience, 31, 16507-16516 (2011)).

[3] = Abeta 1-40, Mean ± SEM, read-out: PDAPP Neuron A-beta (1-40) ELISA IC50
[4] = Abeta 1-42, Mean ± SEM, read-out: PDAPP Neuron A-beta (1-42) ELISA IC50

Sequence of human BACE1 (1-460):Fc (P56817 22-460): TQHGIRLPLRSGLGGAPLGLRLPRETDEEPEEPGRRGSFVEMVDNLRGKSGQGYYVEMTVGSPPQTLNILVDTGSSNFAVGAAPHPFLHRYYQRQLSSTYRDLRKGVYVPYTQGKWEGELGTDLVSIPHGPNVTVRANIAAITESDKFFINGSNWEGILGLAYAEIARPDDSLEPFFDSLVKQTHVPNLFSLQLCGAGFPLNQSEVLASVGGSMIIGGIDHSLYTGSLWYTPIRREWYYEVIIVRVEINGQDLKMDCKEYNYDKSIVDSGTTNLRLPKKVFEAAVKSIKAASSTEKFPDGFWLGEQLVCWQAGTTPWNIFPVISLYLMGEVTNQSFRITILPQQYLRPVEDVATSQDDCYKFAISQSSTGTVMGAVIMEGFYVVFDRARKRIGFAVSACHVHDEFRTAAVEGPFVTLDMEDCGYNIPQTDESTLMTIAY

Cl.NC1=N[C@@]2(c3cc(NC(=O)c4ccc(F)cn4)ccc3F)COC[C@@]2(F)CS1 [Example 1, N-[3-[(4aR,7aS)-2-Amino-4a-fluoro-5,7-dihydro-4H-furo[3,4-d][1,3]thiazin-7a-yl]-4-fluoro-phenyl]-5-fluoro-pyridine-2-carboxamide hydrochloride]
Abeta 1-x peptide levels reduced in brain cortex ([1]; 30 mg/kg oral dose): approximately 48%
Abeta 1-x peptide levels reduced in brain hippocampus ([1]; 30 mg/kg oral dose): approximately 37%
IC50 [2, 3]: 83.3 nM
IC50 [2, 4]: 76.8 nM
IC50 (human BACE1 (1-460):Fc): 15.6 nM

COc1cnc(C(=O)Nc2ccc(F)c([C@]34COC[C@@]3(F)CSC(N)=N4)c2)cn1.Cl [Example 2, N-[3-[(4aR,7aS)-2-Amino-4a-fluoro-5,7-dihydro-4H-furo[3,4-d][1,3]thiazin-7a-yl]-4-fluoro-phenyl]-5-methoxy-pyrazine-2-carboxamide hydrochloride]
Abeta 1-x peptide levels reduced in brain cortex ([1]; 10 mg/kg oral dose): approximately 45%
Abeta 1-x peptide levels reduced in brain hippocampus ([1]; 10 mg/kg oral dose): approximately 40%
Abeta 1-x peptide levels reduced in brain cortex ([1]; 30 mg/kg oral dose): approximately 54%
Abeta 1-x peptide levels reduced in brain hippocampus ([1]; 30 mg/kg oral dose): approximately 52%
IC50 [2, 3]: 29.5 nM
IC50 [2, 4]: 21.9 nM

Cl.N#Cc1ccc(C(=O)Nc2ccc(F)c([C@]34COC[C@@]3(F)CSC(N)=N4)c2)nc1 [Example 3, N-[3-[(4aR,7aS)-2-Amino-4a-fluoro-5,7-dihydro-4H-furo[3,4-d][1,3]thiazin-7a-yl]-4-fluoro-phenyl]-5-cyano-pyridine-2-carboxamide hydrochloride]
Abeta 1-x peptide levels reduced in brain cortex ([1]; 10 mg/kg oral dose): approximately 46%
Abeta 1-x peptide levels reduced in brain hippocampus ([1]; 10 mg/kg oral dose): approximately 34%
IC50 [2, 3]: 20.2 nM
IC50 [2, 4]: 16.3 nM
IC50 (human BACE1 (1-460):Fc): 6.66 nM

Cl.N#Cc1ccc(C(=O)Nc2ccc(F)c([C@]34COC[C@@]3(F)COC(N)=N4)c2)nc1 [Example 34, N-[3-[(4aR,7aS)-2-Amino-4a-fluoro-5,7-dihydro-4H-furo[3,4-d][1,3]oxazin-7a-yl]-4-fluoro-phenyl]-5-cyano-pyridine-2-carboxamide hydrochloride]
Abeta 1-x peptide levels reduced in brain hippocampus ([1]; 10 mg/kg oral dose): approximately 26%
IC50 [2, 3]: 49.9 nM
IC50 [2, 4]: 36.5 nM
IC50 (human BACE1 (1-460):Fc): 45 nM

NC1=N[C@@]2(c3cc(NC(=O)c4cnc(OCC5(F)CC5)cn4)ccc3F)COC[C@@]2(F)CO1 [Example 57, N-[3-[(4aR,7aS)-2-Amino-4a-fluoro-5,7-dihydro-4H-furo[3,4-d][1,3]oxazin-7a-yl]-4-fluoro-phenyl]-5-[(1-fluorocyclopropyl)methoxy]pyrazine-2-carboxamide hydrochloride]
IC50 [2, 3]: 186 nM
IC50 [2, 4]: 182 nM
IC50 (human BACE1 (1-460):Fc): 25.7 nM
